# Source: PubChem BioAssay AID220 (DTP/NCI, 2004)
# “And” between values parts separate entries of the source, which are not always exact repeats. Equal entries are not always repeated. Inconclusive results are not listed. Starred links: 1 amine or outer side, 2 acyl side, 3 side chain; linkers in the order of their positions; H or OH if unused. Positions of bridges follow the written chain, without caps; N, C: chain ends. Non-standard residues stand in square brackets, D forms with d. Residues, ends and D or L forms follow the SMILES beside them. Chains are numbered I, II in the order given. Actinocin(1to9) = Cc1c2oc3c(C)ccc(C(=O)[*:2])c3nc-2c(C(=O)[*:1])c(N)c1=O; NMeV = CN[CH](C(=O)O)C(C)C; Aze = O=C(O)[CH]1CCN1; Sar = CNCC(=O)O
# Tested on: CD8F1 mice, subcutaneous mammary adenocarcinoma, T/C%
# Test: NCI In Vivo Anticancer Drug Screen. Data for tumor model Mammary Adenocarcinoma CD8F1 (subcutaneous) in CD8F1
# Details: higher = larger tumour
# In short: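 Ratio of treated to vehicle-control outcome, based on either survival or tumor size, in mice bearing transplantable tumors given the test compound.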
# [1] = endpoint: median tumor weight change, dose: 250.0 mg/kg/injection, schedule: Q01DX001 (ip), vehicle: saline
# [2] = endpoint: median tumor weight (est.), dose: 25.0 mg/kg/injection, schedule: Q07DX005 (ip), vehicle: saline with Tween-80
structure (smiles),measurement,setting,value
COC12C(COC(=O)NCCO)C3=C(C(=O)C(C)=C(N)C3=O)N1CC1NC12 (stereo not drawn),T/C,"endpoint: median tumor weight change, dose: 12.5 mg/kg/injection, schedule: Q01DX001 (ip), vehicle: Klucel (hydroxypropylcellulose) (HPC)",77 % of control
same,T/C,"endpoint: median tumor weight change, dose: 25.0 mg/kg/injection, schedule: Q01DX001 (ip), vehicle: Klucel (hydroxypropylcellulose) (HPC)",78 % of control
same,T/C,"endpoint: median tumor weight change, dose: 50.0 mg/kg/injection, schedule: Q01DX001 (ip), vehicle: Klucel (hydroxypropylcellulose) (HPC)",33 % of control
same,T/C,"endpoint: median tumor weight change, dose: 100.0 mg/kg/injection, schedule: Q01DX001 (ip), vehicle: Klucel (hydroxypropylcellulose) (HPC)",-64 % of control
Cc1cc(NCCCCCCCCNc2cc(C)nc3cc(N(C)C)ccc23)c2ccc(N(C)C)cc2n1,T/C,"endpoint: median tumor weight change, dose: 31.0 mg/kg/injection, schedule: Q01DX001 (ip), vehicle: distilled water + Tween-80",35 % of control
same,T/C,"endpoint: median tumor weight change, dose: 62.5 mg/kg/injection, schedule: Q01DX001 (ip), vehicle: distilled water + Tween-80",47 % of control and 54 % of control
same,T/C,"endpoint: median tumor weight change, dose: 125.0 mg/kg/injection, schedule: Q01DX001 (ip), vehicle: distilled water + Tween-80 + alcohol",105 % of control
same,T/C,"endpoint: median tumor weight change, dose: 250.0 mg/kg/injection, schedule: Q01DX001 (ip), vehicle: distilled water + Tween-80 + alcohol",104 % of control
Brc1c(NC2=NCCN2)ccc2nccnc12,T/C,"endpoint: median tumor weight change, dose: 15.6 mg/kg/injection, schedule: Q01DX001 (ip), vehicle: saline",52 % of control
same,T/C,"endpoint: median tumor weight change, dose: 31.25 mg/kg/injection, schedule: Q01DX001 (ip), vehicle: saline",77 % of control
same,T/C,"endpoint: median tumor weight change, dose: 62.5 mg/kg/injection, schedule: Q01DX001 (ip), vehicle: saline",81 % of control
same,T/C,"endpoint: median tumor weight change, dose: 125.0 mg/kg/injection, schedule: Q01DX001 (ip), vehicle: saline",92 % of control
same,T/C,[1],53 % of control
NC(=O)c1c[se]c(C2OC(CO)C(O)C2O)n1 (stereo not drawn),T/C,"endpoint: median tumor weight change, dose: 50.0 mg/kg/injection, schedule: Q01DX001 (ip), vehicle: water",124 % of control
same,T/C,"endpoint: median tumor weight change, dose: 75.0 mg/kg/injection, schedule: Q01DX001 (ip), vehicle: water",45 % of control
same,T/C,"endpoint: median tumor weight change, dose: 100.0 mg/kg/injection, schedule: Q01DX001 (ip), vehicle: water",83 % of control
same,T/C,"endpoint: median tumor weight change, dose: 150.0 mg/kg/injection, schedule: Q01DX001 (ip), vehicle: water",73 % of control
same,T/C,"endpoint: median tumor weight change, dose: 200.0 mg/kg/injection, schedule: Q01DX001 (ip), vehicle: water",89 % of control
same,T/C,"endpoint: median tumor weight change, dose: 300.0 mg/kg/injection, schedule: Q01DX001 (ip), vehicle: water",47 % of control
same,T/C,"endpoint: median tumor weight change, dose: 400.0 mg/kg/injection, schedule: Q01DX001 (ip), vehicle: water",95 % of control
same,T/C,"endpoint: median tumor weight change, dose: 600.0 mg/kg/injection, schedule: Q01DX001 (ip), vehicle: water",43 % of control
same,T/C,"endpoint: median tumor weight change, dose: 1200.0 mg/kg/injection, schedule: Q01DX001 (ip), vehicle: water",50 % of control
CNNCc1ccc(C(=O)NC(C)C)cc1,T/C,"endpoint: median tumor weight (est.), dose: 16.0 mg/kg/injection, schedule: Q07DX005 (ip), vehicle: saline",207 % of control and 101 % of control
C/C=C(\Cl)C1=CC(=O)C23CC2C2(C)COC1(O)C3(O)O2 (stereo not drawn),T/C,"endpoint: median tumor weight (est.), dose: 6.0 mg/kg/injection, schedule: Q07DX005 (ip), vehicle: saline with Tween-80",90 % of control
Clc1ccc(CN2COc3c(ccc4cccnc34)C2)cc1Cl,T/C,[2],113 % of control
same,T/C,"endpoint: median tumor weight (est.), dose: 50.0 mg/kg/injection, schedule: Q07DX005 (ip), vehicle: saline with Tween-80",65 % of control
same,T/C,"endpoint: median tumor weight (est.), dose: 200.0 mg/kg/injection, schedule: Q07DX005 (ip), vehicle: saline with Tween-80",66 % of control
same,T/C,"endpoint: median tumor weight (est.), dose: 400.0 mg/kg/injection, schedule: Q07DX005 (ip), vehicle: saline with Tween-80",96 % of control
CC1C(=O)c2cc3c(cc2CCN(C)Cc2c1ccc1c2OCO1)OCO3 (stereo not drawn),T/C,"endpoint: median tumor weight change, dose: 12.5 mg/kg/injection, schedule: Q01DX001 (ip), vehicle: saline with Tween-80",65 % of control
same,T/C,"endpoint: median tumor weight change, dose: 25.0 mg/kg/injection, schedule: Q01DX001 (ip), vehicle: saline with Tween-80",64 % of control
"Cc1c2oc3c(C)ccc(C(=O)NC4C(=O)NC(C(C)C)C(=O)N5CCCC5C(=O)N(C)CC(=O)N(C)C(C(C)C)C(=O)OC4C)c3nc-2c(C(=O)NC2C(=O)NC(C(C)C)C(=O)N3CCC3C(=O)N(C)CC(=O)N(C)C(C(C)C)C(=O)OC2C)c(N)c1=O (stereo not drawn) (I: TV[Aze][Sar][NMeV] / II: TVP[Sar][NMeV]; ester I:1-I:C, II:1-II:C; linker I:N-II:N via Actinocin(1to9); configuration not given here)",T/C,"endpoint: median tumor weight (est.), dose: 300.0 micrograms/kg/injection, schedule: Q07DX005 (ip), vehicle: saline + alcohol",34 % of control and 44 % of control
same,T/C,"endpoint: median tumor weight (est.), dose: 600.0 micrograms/kg/injection, schedule: Q07DX005 (ip), vehicle: saline + alcohol",2 % of control
CN(C)c1ccc2c(N(C)C)cc(N(C)C)nc2c1,T/C,"endpoint: median tumor weight (est.), dose: 3.12 mg/kg/injection, schedule: Q07DX005 (ip), vehicle: Klucel (hydroxypropylcellulose) (HPC)",58 % of control
same,T/C,"endpoint: median tumor weight (est.), dose: 6.25 mg/kg/injection, schedule: Q07DX005 (ip), vehicle: Klucel (hydroxypropylcellulose) (HPC)",78 % of control
CSc1ncc2ncn(C3OC(CO)C(O)C3O)c2n1 (stereo not drawn),T/C,"endpoint: median tumor weight change, dose: 250.0 mg/kg/injection, schedule: Q01DX001 (ip), vehicle: Klucel (hydroxypropylcellulose) (HPC)",92 % of control
same,T/C,"endpoint: median tumor weight change, dose: 500.0 mg/kg/injection, schedule: Q01DX001 (ip), vehicle: Klucel (hydroxypropylcellulose) (HPC)",110 % of control
same,T/C,"endpoint: median tumor weight change, dose: 1000.0 mg/kg/injection, schedule: Q01DX001 (ip), vehicle: Klucel (hydroxypropylcellulose) (HPC)",57 % of control
Nc1ccccc1N,T/C,"endpoint: median tumor weight (est.), dose: 12.5 mg/kg/injection, schedule: Q07DX005 (ip), vehicle: Klucel (hydroxypropylcellulose) (HPC)",117 % of control
same,T/C,"endpoint: median tumor weight (est.), dose: 25.0 mg/kg/injection, schedule: Q07DX005 (ip), vehicle: Klucel (hydroxypropylcellulose) (HPC)",155 % of control
same,T/C,"endpoint: median tumor weight (est.), dose: 100.0 mg/kg/injection, schedule: Q07DX005 (ip), vehicle: Klucel (hydroxypropylcellulose) (HPC)",122 % of control
same,T/C,"endpoint: median tumor weight (est.), dose: 400.0 mg/kg/injection, schedule: Q07DX005 (ip), vehicle: Klucel (hydroxypropylcellulose) (HPC)",35 % of control
C/C=C1\C[C@@H]2C(OC)Nc3cc(O)c(OC)cc3C(=O)N2C1 (stereo partly drawn),T/C,"endpoint: median tumor weight change, dose: 0.06 mg/kg/injection, schedule: Q01DX001 (ip), vehicle: saline",105 % of control
same,T/C,"endpoint: median tumor weight change, dose: 0.12 mg/kg/injection, schedule: Q01DX001 (ip), vehicle: saline",96 % of control
same,T/C,"endpoint: median tumor weight change, dose: 0.25 mg/kg/injection, schedule: Q01DX001 (ip), vehicle: saline",105 % of control
same,T/C,"endpoint: median tumor weight change, dose: 0.31 mg/kg/injection, schedule: Q01DX001 (ip), vehicle: suspension in saline",76 % of control
same,T/C,"endpoint: median tumor weight change, dose: 0.5 mg/kg/injection, schedule: Q01DX001 (ip), vehicle: saline",90 % of control
same,T/C,"endpoint: median tumor weight change, dose: 0.62 mg/kg/injection, schedule: Q01DX001 (ip), vehicle: suspension in saline",53 % of control
same,T/C,"endpoint: median tumor weight change, dose: 1.0 mg/kg/injection, schedule: Q01DX001 (ip), vehicle: saline",92 % of control
same,T/C,"endpoint: median tumor weight change, dose: 1.25 mg/kg/injection, schedule: Q01DX001 (ip), vehicle: suspension in saline",43 % of control
same,T/C,"endpoint: median tumor weight change, dose: 2.0 mg/kg/injection, schedule: Q01DX001 (ip), vehicle: saline",42 % of control
C/C=C(\C)C(=O)OC1C(C)C2(O)C(C=C(CO)CC3(O)C(=O)C(C)=CC32)C2C(C)(C)C12OC(=O)CCCCCCCCC (stereo not drawn),T/C,"endpoint: median tumor weight (est.), dose: 0.06 mg/kg/injection, schedule: Q07DX005 (ip), vehicle: saline + alcohol",91 % of control
same,T/C,"endpoint: median tumor weight (est.), dose: 0.12 mg/kg/injection, schedule: Q07DX005 (ip), vehicle: saline + alcohol",76 % of control
same,T/C,"endpoint: median tumor weight (est.), dose: 0.25 mg/kg/injection, schedule: Q07DX005 (ip), vehicle: saline + alcohol",92 % of control
CC[n+]1ccc(Nc2ccc(NC(=O)c3ccc(C(=O)Nc4ccc(Nc5cc[n+](CC)c(N)n5)cc4)cc3)cc2)nc1N,T/C,"endpoint: median tumor weight (est.), dose: 6.25 mg/kg/injection, schedule: Q07DX005 (ip), vehicle: suspension in saline",257 % of control
same,T/C,"endpoint: median tumor weight (est.), dose: 25.0 mg/kg/injection, schedule: Q07DX005 (ip), vehicle: suspension in saline",77 % of control
same,T/C,"endpoint: median tumor weight (est.), dose: 50.0 mg/kg/injection, schedule: Q07DX005 (ip), vehicle: suspension in saline",45 % of control
same,T/C,"endpoint: median tumor weight (est.), dose: 100.0 mg/kg/injection, schedule: Q07DX005 (ip), vehicle: suspension in saline",41 % of control
same,T/C,"endpoint: median tumor weight (est.), dose: 200.0 mg/kg/injection, schedule: Q07DX005 (ip), vehicle: suspension in saline",20 % of control
NC(N)=NOCC[C@@H](N)C(=O)O,T/C,[1],83 % of control
same,T/C,"endpoint: median tumor weight change, dose: 500.0 mg/kg/injection, schedule: Q01DX001 (ip), vehicle: saline",72 % of control
same,T/C,"endpoint: median tumor weight change, dose: 1000.0 mg/kg/injection, schedule: Q01DX001 (ip), vehicle: saline",75 % of control
CC(=O)Oc1ccccc1O,T/C,"endpoint: median tumor weight change, dose: 62.5 mg/kg/injection, schedule: Q01DX001 (ip), vehicle: saline + Tween-80 + alcohol",50 % of control
same,T/C,"endpoint: median tumor weight change, dose: 125.0 mg/kg/injection, schedule: Q01DX001 (ip), vehicle: saline + Tween-80 + alcohol",57 % of control
same,T/C,"endpoint: median tumor weight change, dose: 250.0 mg/kg/injection, schedule: Q01DX001 (ip), vehicle: saline + Tween-80 + alcohol",58 % of control
O=C1C2CC=CCC2C(=O)N1SC(Cl)(Cl)Cl (stereo not drawn),T/C,"endpoint: median tumor weight (est.), dose: 3.12 mg/kg/injection, schedule: Q07DX005 (ip), vehicle: saline with Tween-80",78 % of control
same,T/C,"endpoint: median tumor weight (est.), dose: 6.25 mg/kg/injection, schedule: Q07DX005 (ip), vehicle: saline with Tween-80",70 % of control
same,T/C,"endpoint: median tumor weight (est.), dose: 12.5 mg/kg/injection, schedule: Q07DX005 (ip), vehicle: saline with Tween-80",89 % of control
same,T/C,[2],74 % of control
